Results as given in patent US20120309739A1, “AKT / PKB INHIBITORS” (ALMAC DISCOVERY LIMITED, priority 2009, published 2012).
Where a name gives a salt, the structure may show the parent alone.

Columns and labels:
Format in all cases: biochemical
AKT1 = target: T1, AKT1 (Homo sapiens, UniProt P31749); experiment: AKT Kinase Assay (IMAP fluorescent polarisation) vs AKT1; conditions: activated AKT1, FAM Crosstide substrate
T1 construct: purchased SignalChem
How it was run: (§1)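 Each activated AKT isoform, at a pre-determined linear-range concentration, was pre-incubated 45 min at room temperature with compound in a fourteen-point half-log series. ATP plus 5′FAM-Crosstide then reacted 1 h; IMAP binding reagent stopped it (1 h). Fluorescence polarisation (ex 485/em 528 nm) versus vehicle gave IC50 by non-linear regression.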

AKT2 = target: T2, AKT2 (Homo sapiens, UniProt P31751); experiment: AKT Kinase Assay (IMAP fluorescent polarisation) vs AKT2; conditions: activated AKT2, FAM Crosstide substrate
T2 construct: purchased SignalChem
T2 sequence (P31751 whole entry): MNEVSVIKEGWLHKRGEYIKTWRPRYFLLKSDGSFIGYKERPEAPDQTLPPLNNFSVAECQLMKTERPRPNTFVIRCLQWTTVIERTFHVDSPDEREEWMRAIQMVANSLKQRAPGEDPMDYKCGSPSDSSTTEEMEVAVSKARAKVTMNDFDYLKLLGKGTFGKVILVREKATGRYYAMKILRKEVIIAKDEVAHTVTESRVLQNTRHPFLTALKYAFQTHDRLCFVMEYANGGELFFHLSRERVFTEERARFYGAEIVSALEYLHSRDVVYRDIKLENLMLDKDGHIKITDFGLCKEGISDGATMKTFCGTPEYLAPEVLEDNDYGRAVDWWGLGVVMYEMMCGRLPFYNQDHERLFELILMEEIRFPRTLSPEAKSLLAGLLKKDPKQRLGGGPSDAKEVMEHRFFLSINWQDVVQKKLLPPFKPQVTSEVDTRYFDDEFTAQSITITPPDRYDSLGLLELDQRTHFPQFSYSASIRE
How it was run: as §1

AKT3 = target: T3, AKT3 (Homo sapiens, UniProt Q9Y243); experiment: AKT Kinase Assay (IMAP fluorescent polarisation) vs AKT3; conditions: activated AKT3, FAM Crosstide substrate
T3 construct: purchased SignalChem
T3 sequence (Q9Y243 whole entry): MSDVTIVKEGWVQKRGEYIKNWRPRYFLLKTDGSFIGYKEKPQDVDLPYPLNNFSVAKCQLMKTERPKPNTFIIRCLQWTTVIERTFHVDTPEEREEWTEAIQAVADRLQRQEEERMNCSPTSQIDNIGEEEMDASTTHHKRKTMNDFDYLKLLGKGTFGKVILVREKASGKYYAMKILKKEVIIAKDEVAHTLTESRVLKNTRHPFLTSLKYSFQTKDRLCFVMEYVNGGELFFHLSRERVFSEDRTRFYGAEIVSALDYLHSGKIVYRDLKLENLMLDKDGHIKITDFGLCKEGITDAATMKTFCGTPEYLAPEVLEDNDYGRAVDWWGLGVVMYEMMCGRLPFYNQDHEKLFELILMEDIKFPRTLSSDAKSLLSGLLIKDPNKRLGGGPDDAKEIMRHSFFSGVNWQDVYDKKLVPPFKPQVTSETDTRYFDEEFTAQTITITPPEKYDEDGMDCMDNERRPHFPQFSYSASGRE
How it was run: as §1

T1 sequence (P31749 whole entry): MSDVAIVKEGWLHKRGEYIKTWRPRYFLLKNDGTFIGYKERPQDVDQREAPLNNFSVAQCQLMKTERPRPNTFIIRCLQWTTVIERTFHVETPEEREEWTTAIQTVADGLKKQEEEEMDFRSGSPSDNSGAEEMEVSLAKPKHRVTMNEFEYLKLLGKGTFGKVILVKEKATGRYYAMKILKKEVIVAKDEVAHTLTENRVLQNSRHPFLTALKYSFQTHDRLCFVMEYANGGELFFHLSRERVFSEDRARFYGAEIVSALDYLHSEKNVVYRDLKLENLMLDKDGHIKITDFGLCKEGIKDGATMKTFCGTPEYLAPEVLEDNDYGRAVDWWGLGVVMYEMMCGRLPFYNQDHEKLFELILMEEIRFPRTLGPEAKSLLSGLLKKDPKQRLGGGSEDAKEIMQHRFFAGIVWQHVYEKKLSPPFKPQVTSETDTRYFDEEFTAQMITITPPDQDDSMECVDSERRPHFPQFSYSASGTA

| IC50 (AKT1) | IC50 (AKT2) | IC50 (AKT3) | SMILES |
| --- | --- | --- | --- |
| 0.1 to 1 µM | 1 to 10 µM | 1 to 10 µM | COCCNc1nc2oc(-c3ccc(C4(N)CCC4)cc3)c(-c3ccccc3)c2c(=O)n1C [Example 83, 6-(4-(1-Aminocyclobutyl)phenyl)-2-(2-methoxyethylamino)-3-methyl-5-phenylfuro[2,3-d]pyrimidin-4(3H)-one] |
| 1 to 10 µM | 0.1 to 1 µM | > 10 µM | CN(CCO)c1nc2oc(-c3ccc(C4(N)CCC4)cc3)c(-c3ccccc3)c2c(=O)n1C [Example 84, 6-(4-(1-Aminocyclobutyl)phenyl)-2-((2-hydroxyethyl)(methyl)amino)-3-methyl-5-phenylfuro[2,3-d]pyrimidin-4(3H)-one] |
| 0.1 to 1 µM | ≤ 0.1 µM | 1 to 10 µM | Cn1c(OCCO)nc2oc(-c3ccc(C4(N)CCC4)cc3)c(-c3ccccc3)c2c1=O [Example 85, 6-(4-(1-Aminocyclobutyl)phenyl)-2-(2-hydroxyethoxy)-3-methyl-5-phenylfuro[2,3-d]pyrimidin-4(3H)-one, HCl] |
| 0.1 to 1 µM | 0.1 to 1 µM | 1 to 10 µM | C[C@H](O)CNc1nc2oc(-c3ccc(C4(N)CCC4)cc3)c(-c3ccccc3)c2c(=O)n1C [Example 86, (S)-6-(4-(1-Aminocyclobutyl)phenyl)-2-((2-hydroxypropyl)amino)-3-methyl-5-phenylfuro[2,3-d]pyrimidin-4(3H)-one] |
| 0.1 to 1 µM | 0.1 to 1 µM | 1 to 10 µM | Cc1nc2oc(-c3ccc(C4(N)CCC4)cc3)c(-c3ccccc3)c2c(=O)n1C [Example 87, 6-(4-(1-Aminocyclobutyl)phenyl)-2,3-dimethyl-5-phenylfuro[2,3-d]pyrimidin-4(3H)-one] |
| 0.1 to 1 µM | ≤ 0.1 µM | 1 to 10 µM | CCNc1nc2oc(-c3ccc(C4(N)CCC4)cc3)c(-c3ccccc3)c2c(=O)n1C [Example 88, 6-(4-(1-Aminocyclobutyl)phenyl)-2-(ethylamino)-3-methyl-5-phenylfuro[2,3-d]pyrimidin-4(3H)-one, HCl] |
| 0.1 to 1 µM | 0.1 to 1 µM | 1 to 10 µM | CNc1nc(OCCF)c2c(-c3ccccc3)c(-c3ccc(C4(N)CCC4)cc3)oc2n1 [Example 89, 6-(4-(1-Aminocyclobutyl)phenyl)-4-(2-fluoroethoxy)-N-methyl-5-phenylfuro[2,3-d]pyrimidin-2-amine, HCl] |
| 0.1 to 1 µM | 0.1 to 1 µM | > 10 µM | Cn1c(C2CC2)nc2oc(-c3ccc(C4(N)CCC4)cc3)c(-c3ccccc3)c2c1=O [Example 90, 6-(4-(1-Aminocyclobutyl)phenyl)-2-cyclopropyl-3-methyl-5-phenylfuro[2,3-d]pyrimidin-4(3H)-one] |
| 1 to 10 µM | 1 to 10 µM | > 10 µM | NC1(c2ccc(-c3oc4ccn(CCF)c(=O)c4c3-c3ccccc3)cc2)CCC1 [Example 91, 2-(4-(1-Aminocyclobutyl)phenyl)-5-(2-fluoroethyl)-3-phenylfuro[3,2-c]pyridin-4(5H)-one] |
| 0.1 to 1 µM | ≤ 0.1 µM | 1 to 10 µM | CCn1c(NC)nc2oc(-c3ccc(C4(N)CCC4)cc3)c(-c3ccccc3)c2c1=O [Example 92, 6-(4-(1-Aminocyclobutyl)phenyl)-3-ethyl-2-(methylamino)-5-phenylfuro[2,3-d]pyrimidin-4(3H)-one] |
| 1 to 10 µM | ≤ 0.1 µM | 1 to 10 µM | CCn1c(NCCO)nc2oc(-c3ccc(C4(N)CCC4)cc3)c(-c3ccccc3)c2c1=O [Example 93, 6-(4-(1-Aminocyclobutyl)phenyl)-3-ethyl-2-((2-hydroxyethyl)amino)-5-phenylfuro[2,3-d]pyrimidin-4(3H)-one] |
| 1 to 10 µM | ≤ 0.1 µM | 1 to 10 µM | CNc1nc2oc(-c3ccc(C4(N)CCC4)cc3)c(-c3ccccc3)c2c(=O)n1CC1CC1 [Example 94] |
| 1 to 10 µM | ≤ 0.1 µM | 1 to 10 µM | NC1(c2ccc(-c3oc4nc(NCCO)n(CC5CC5)c(=O)c4c3-c3ccccc3)cc2)CCC1 [Example 95, 6-(4-(1-Aminocyclobutyl)phenyl)-3-(cyclopropylmethyl)-2-((2-hydroxyethyl)amino)-5-phenylfuro[2,3-d]pyrimidin-4(3H)-one] |
| ≤ 0.1 µM | ≤ 0.1 µM | 1 to 10 µM | CSc1nc2oc(-c3ccc(C4(N)CCC4)cc3)c(-c3ccccc3)c2c(=O)n1CC#N [Example 96, 2-(6-(4-(1-Aminocyclobutyl)phenyl)-2-(methylthio)-4-oxo-5-phenylfuro[2,3-d]pyrimidin-3(4H)-yl)acetonitrile] |
| 0.1 to 1 µM | 0.1 to 1 µM | > 10 µM | CSc1nc2oc(-c3ccc(C4(N)CCC4)cc3)c(-c3ccccc3)c2c(=O)n1CC(N)=O [Example 97, 2-(6-(4-(1-Aminocyclobutyl)phenyl)-2-(methylthio)-4-oxo-5-phenylfuro[2,3-d]pyrimidin-3(4H)-yl)acetamide] |
| 0.1 to 1 µM | 0.1 to 1 µM | > 10 µM | C[C@@H](CO)Nc1nc2oc(-c3ccc(C4(N)CCC4)cc3)c(-c3ccccc3)c2c(=O)n1C [Example 98, (S)-6-(4-(1-Aminocyclobutyl)phenyl)-2-(1-hydroxypropan-2-ylamino)-3-methyl-5-phenylfuro[2,3-d]pyrimidin-4(3H)-one] |
| 1 to 10 µM | ≤ 0.1 µM | 1 to 10 µM | Cn1c(N2CCNC(=O)C2)nc2oc(-c3ccc(C4(N)CCC4)cc3)c(-c3ccccc3)c2c1=O [Example 99, 6-(4-(1-Aminocyclobutyl)phenyl)-3-methyl-2-(3-oxopiperazin-1-yl)-5-phenylfuro[2,3-d]pyrimidin-4(3H)-one] |
| 1 to 10 µM | ≤ 0.1 µM | 1 to 10 µM | NC1(c2ccc(-c3oc4ncn(CC5CC5)c(=O)c4c3-c3ccccc3)cc2)CCC1 [Example 100] |
| 0.1 to 1 µM | 0.1 to 1 µM | 1 to 10 µM | N#CCn1cnc2oc(-c3ccc(C4(N)CCC4)cc3)c(-c3ccccc3)c2c1=O [Example 101, 2-(6-(4-(1-Aminocyclobutyl)phenyl)-4-oxo-5-phenylfuro[2,3-d]pyrimidin-3(4H)-yl)acetonitrile] |
| 1 to 10 µM | 0.1 to 1 µM | 1 to 10 µM | NC1(c2ccc(-c3oc4ncn(CCO)c(=O)c4c3-c3ccccc3)cc2)CCC1 [Example 102, 6-(4-(1-Aminocyclobutyl)phenyl)-3-(2-hydroxyethyl)-5-phenylfuro[2,3-d]pyrimidin-4(3H)-one, HCl] |
| 0.1 to 1 µM | ≤ 0.1 µM | 1 to 10 µM | NC1(c2ccc(-c3oc4ncn(CCF)c(=O)c4c3-c3ccccc3)cc2)CCC1 [Example 103, 6-(4-(1-Aminocyclobutyl)phenyl)-3-(2-fluoroethyl)-5-phenylfuro[2,3-d]pyrimidin-4(3H)-one, HCl] |
| 1 to 10 µM | ≤ 0.1 µM | 1 to 10 µM | CCn1cnc2oc(-c3ccc(C4(N)CCC4)cc3)c(-c3ccccc3)c2c1=O [Example 104, 6-(4-(1-Aminocyclobutyl)phenyl)-3-ethyl-5-phenylfuro[2,3-d]pyrimidin-4(3H)-one, HCl] |
| 1 to 10 µM | 0.1 to 1 µM | 1 to 10 µM | COCCn1cnc2oc(-c3ccc(C4(N)CCC4)cc3)c(-c3ccccc3)c2c1=O [Example 105, 6-(4-(1-Aminocyclobutyl)phenyl)-3-(2-methoxyethyl)-5-phenylfuro[2,3-d]pyrimidin-4(3H)-one, HCl] |
